Measurements: patent publication US20220227737A1, “NOVEL OXALYL PIPERAZINES ACTIVE AGAINST THE HEPATITIS B VIRUS (HBV)” (AiCuris GmbH & Co. KG, priority 2019, published 2022)

Legend:
[1] = molecular target: T1, C-terminal truncated core protein (HBV core dimer, BODIPY-FL labelled) (UniProt P03146); assay: Biochemical capsid assembly assay (fluorescence quenching)
T1 construct: fused on or other part: One added cysteine at position 150, labelled with BODIPY-FL maleimide; The C-terminal arginine-rich domain is absent
Outline: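 E. coli-expressed HBV core 1–149 plus Cys150 dimer, BODIPY-FL-labelled, at 1.0–2.0 μM in 50 mM HEPES pH 7.5, 0.5% DMSO. 8-point compound series; assembly started with NaCl, fluorescence quenching (ex 477/em 525 nm) read after 6 min. EC50 by non-linear regression versus 2.5 M and 0 M NaCl controls.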

HBV = HBV replication assay: HBV DNA from the supernatants of HepAD38 cells; format: cell-based; conditions: Hepatitis B virus, 144 h, HBV DNA in supernatant at day 6, read-out: Cell Activity
Description: Determination of HBV DNA from the Supernatants of HepAD38 Cells
The anti-HBV activity was analysed in the stable transfected cell line HepAD38, which has been described to secrete high levels of HBV virion particles (Ladner et al., 1997). In brief, HepAD38 cells were cultured at 37° C. at 5% CO2 and 95% humidity in 200 μl maintenance medium, which was Dulbecco's modified Eagle's medium/Nutrient Mixture F-12 (Gibco, Karlsruhe), 10% fetal bovine serum (PAN Biotech Aidenbach) supplemented with 50 μg/ml penicillin/streptomycin (Gibco, Karlsruhe), 2 mM L-glutamine (PAN Biotech, Aidenbach), 400 μg/ml G418 (AppliChem, Darmstadt) and 0.3 μg/ml tetracycline. Cells were subcultured once a week in a 1:5 ratio, but were usually not passaged more than ten times. For the assay 60,000 cells were seeded in maintenance medium without any tetracycline into each well of a 96-well plate and treated with serial half-log dilutions of test compound. To minimize edge effects the outer 36 wells of the plate were not used but were filled with assay medium. On each assay plate six wells for the virus control (untreated HepAD38 cells) and six wells for the cell control (HepAD38 cells treated with 0.3 μg/ml tetracycline) were allocated, respectively. In addition, one plate set with reference inhibitors like BAY 41-4109, entecavir, and lamivudine instead of screening compounds were prepared in each experiment. In general, experiments were performed thrice in triplicates. At day 6 HBV DNA from 100 μl filtrated cell culture supernatant (AcroPrep Advance 96 Filter Plate, […] Supor membran, PALL GmbH, Dreieich) was automatically purified on the MagNa Pure LC instrument using the MagNA Pure 96 DNA and Viral NA Small Volume Kit (Roche Diagnostics, Mannheim) according to the instructions of the manufacturer. EC50 values were calculated from relative copy numbers of HBV DNA In brief, 5 μl of the 100 μl eluate containing HBV DNA were subjected to PCR LC480 Probes Master Kit (Roche) together with 1 μM antisense primer […], 0.5 μM sense primer […], 0.3 μM hybprobes […]-FL and LC640-[…]-PH (TIBMolBiol, Berlin) to a final volume of […]. The PCR was performed on the Light Cycler 480 real time system (Roche Diagnostics, Mannheim) using the following protocol: Pre-incubation for 1 min at 95° C., amplification: 40 cycles×(10 sec at 95° C., 50 sec at 60° C., 1 sec at 70° C.), cooling for 10 sec at 40° C. Viral load was quantitated against known standards using HBV plasmid DNA of pCH-9/3091 (Nassal et al., 1990, Cell 63: 1357-1363) and the LightCycler 480 SW 1.5 software (Roche Diagnostics, Mannheim) and EC50 values were calculated using non-linear regression with GraphPad Prism 6 (GraphPad Software Inc., La Jolla, USA).

[2] = Cell viability assay (AlamarBlue); conditions: human, HepAD38 cells

T1 sequence (P03146 whole entry, the tested form may be a part): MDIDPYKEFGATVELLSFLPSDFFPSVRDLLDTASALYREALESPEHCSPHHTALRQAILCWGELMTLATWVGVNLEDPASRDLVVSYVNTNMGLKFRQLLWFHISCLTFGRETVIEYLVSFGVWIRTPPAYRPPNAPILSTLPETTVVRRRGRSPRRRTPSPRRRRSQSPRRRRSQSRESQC

SMILES	IC50 [1] [µM]	EC50 (HBV) [µM]	CC50 at 6 days [2] [µM]
CCCCNC(=O)C(=O)N1CCCN(C(=O)c2cc3ccccc3[nH]2)CC1 [Example 8, N-butyl-2-[4-(1H-indole-2-carbonyl)-1,4-diazepan-1-yl]-2-oxoacetamide]	< 100	< 1	> 100
CCCCNC(=O)C(=O)N1CCN(C(=O)c2cc3cccc(Br)c3[nH]2)CC1 [Example 5, 2-[4-(7-bromo-1H-indole-2-carbonyl)piperazin-1-yl]-N-butyl-2-oxoacetamide]	< 5	< 1	> 100
CC(C)(C)NC(=O)C(=O)N1CCN(C(=O)c2cc3ccccc3[nH]2)CC1 [Example 52, N-tert-butyl-2-[4-(1H-indole-2-carbonyl)piperazin-1-yl]-2-oxoacetamide]	< 5	< 1	> 100
